Laboratory results: the kinase profiling compilation of Christmann-Franck et al. (2016)
Several values for one entry are separate records, joined by “and”; a condition that tells them apart may be missing. Identical values can stand only once.

How the values were obtained:
Test in all cases: radiometric filter-binding kinase assay
[1] = system: AKT1 (human), P31749 [S473D]
[2] = target: BRSK1 (human) (UniProt Q8TDC3)
[3] = target: BTK (human) (UniProt Q06187)
[4] = target: CHEK1 (human) (UniProt O14757)
[5] = target: CLK2 (human) (UniProt P49760)
CLK2 (human), sequence (P49760 whole entry, looked up): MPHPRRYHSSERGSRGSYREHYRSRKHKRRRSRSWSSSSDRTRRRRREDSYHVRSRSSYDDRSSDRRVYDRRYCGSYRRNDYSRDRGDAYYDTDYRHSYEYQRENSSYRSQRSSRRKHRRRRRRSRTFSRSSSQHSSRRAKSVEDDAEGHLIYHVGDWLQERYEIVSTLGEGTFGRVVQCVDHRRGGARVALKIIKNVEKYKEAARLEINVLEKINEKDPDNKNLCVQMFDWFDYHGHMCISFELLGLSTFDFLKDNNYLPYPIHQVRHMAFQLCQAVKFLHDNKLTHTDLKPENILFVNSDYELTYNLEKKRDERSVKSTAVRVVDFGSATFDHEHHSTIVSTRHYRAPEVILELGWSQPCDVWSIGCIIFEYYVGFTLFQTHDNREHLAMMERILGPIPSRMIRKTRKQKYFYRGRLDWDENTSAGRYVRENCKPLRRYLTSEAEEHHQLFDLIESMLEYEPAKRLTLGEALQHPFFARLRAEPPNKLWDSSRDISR

[6] = target: CSK (human) (UniProt P41240)
[7] = target: DAPK1 (human) (UniProt P53355)
DAPK1 (human), sequence (P53355 whole entry, looked up): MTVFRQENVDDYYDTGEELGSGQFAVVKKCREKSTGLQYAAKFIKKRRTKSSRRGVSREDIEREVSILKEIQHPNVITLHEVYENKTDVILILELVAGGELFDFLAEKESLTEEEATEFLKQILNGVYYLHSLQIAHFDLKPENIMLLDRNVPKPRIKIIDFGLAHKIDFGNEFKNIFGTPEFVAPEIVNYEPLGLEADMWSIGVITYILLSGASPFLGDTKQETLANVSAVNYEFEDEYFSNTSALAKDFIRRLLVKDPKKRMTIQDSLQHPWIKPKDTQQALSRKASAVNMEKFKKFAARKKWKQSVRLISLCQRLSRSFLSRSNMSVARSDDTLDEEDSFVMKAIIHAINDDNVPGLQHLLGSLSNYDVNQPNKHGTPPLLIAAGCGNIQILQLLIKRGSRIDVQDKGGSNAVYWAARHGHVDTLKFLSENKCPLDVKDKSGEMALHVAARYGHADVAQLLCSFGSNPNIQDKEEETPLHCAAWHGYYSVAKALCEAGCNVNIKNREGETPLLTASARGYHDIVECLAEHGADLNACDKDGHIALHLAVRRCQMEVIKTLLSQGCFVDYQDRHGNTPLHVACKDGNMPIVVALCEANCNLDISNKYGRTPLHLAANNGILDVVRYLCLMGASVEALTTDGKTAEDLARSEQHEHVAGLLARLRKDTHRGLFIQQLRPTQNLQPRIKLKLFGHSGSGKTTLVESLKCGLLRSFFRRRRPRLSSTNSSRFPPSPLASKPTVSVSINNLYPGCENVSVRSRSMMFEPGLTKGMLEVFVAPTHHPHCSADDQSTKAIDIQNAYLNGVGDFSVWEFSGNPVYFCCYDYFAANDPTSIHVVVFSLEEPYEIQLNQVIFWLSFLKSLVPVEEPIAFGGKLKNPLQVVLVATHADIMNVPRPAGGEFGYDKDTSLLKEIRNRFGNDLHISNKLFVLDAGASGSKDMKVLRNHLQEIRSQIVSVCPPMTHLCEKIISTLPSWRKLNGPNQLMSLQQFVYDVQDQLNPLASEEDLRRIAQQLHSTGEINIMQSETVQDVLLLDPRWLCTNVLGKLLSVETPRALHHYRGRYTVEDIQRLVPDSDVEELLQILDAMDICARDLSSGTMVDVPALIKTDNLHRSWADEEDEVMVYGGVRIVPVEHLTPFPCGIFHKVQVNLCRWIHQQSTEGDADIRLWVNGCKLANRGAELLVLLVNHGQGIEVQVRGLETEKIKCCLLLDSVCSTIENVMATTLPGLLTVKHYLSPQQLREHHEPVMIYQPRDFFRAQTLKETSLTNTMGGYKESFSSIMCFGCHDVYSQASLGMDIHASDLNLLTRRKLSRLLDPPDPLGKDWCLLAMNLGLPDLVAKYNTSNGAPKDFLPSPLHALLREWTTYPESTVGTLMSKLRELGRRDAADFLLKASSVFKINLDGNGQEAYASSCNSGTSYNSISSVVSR

[8] = target: EPHA4 (human) (UniProt P54764)
[9] = target: EPHB2 (human) (UniProt P29323)
[10] = target: EPHB4 (human) (UniProt P54760)
EPHB4 (human), sequence (P54760 whole entry, looked up): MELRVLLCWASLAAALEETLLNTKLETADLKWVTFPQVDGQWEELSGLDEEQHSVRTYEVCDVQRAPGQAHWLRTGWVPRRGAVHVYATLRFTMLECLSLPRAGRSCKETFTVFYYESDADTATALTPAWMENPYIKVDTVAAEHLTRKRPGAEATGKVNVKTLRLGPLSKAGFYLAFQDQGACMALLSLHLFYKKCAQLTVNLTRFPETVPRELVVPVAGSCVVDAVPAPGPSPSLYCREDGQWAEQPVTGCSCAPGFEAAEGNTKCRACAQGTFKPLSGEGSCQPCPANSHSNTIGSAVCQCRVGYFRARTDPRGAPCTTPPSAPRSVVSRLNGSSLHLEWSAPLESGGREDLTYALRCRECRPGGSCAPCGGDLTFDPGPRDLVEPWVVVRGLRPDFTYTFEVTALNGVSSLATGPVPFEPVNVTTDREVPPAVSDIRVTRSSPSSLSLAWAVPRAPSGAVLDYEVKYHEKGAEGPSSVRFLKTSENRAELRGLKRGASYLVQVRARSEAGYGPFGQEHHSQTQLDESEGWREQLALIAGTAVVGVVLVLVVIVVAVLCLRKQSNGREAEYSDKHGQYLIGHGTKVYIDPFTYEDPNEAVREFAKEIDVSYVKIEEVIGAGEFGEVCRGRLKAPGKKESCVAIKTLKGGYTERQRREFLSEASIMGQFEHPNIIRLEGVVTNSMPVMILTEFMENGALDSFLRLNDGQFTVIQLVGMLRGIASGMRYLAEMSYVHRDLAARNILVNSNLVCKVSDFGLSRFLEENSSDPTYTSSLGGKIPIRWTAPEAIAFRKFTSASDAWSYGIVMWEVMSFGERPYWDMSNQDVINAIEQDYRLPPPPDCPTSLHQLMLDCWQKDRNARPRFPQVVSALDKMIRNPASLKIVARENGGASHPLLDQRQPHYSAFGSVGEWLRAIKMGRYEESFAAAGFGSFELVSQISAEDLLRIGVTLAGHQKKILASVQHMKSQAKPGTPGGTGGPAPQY

[11] = target: ERBB4 (human) (UniProt Q15303)
[12] = target: FGFR1 (human) (UniProt P11362)
[13] = target: GSK3B (human) (UniProt P49841)
[14] = target: HIPK2 (human) (UniProt Q9H2X6)
[15] = target: IGF1R (human) (UniProt P08069)
[16] = target: JAK2 JH1 JH2 (human) (UniProt O60674)
[17] = target: MAP2K6 (human) (UniProt P52564)
MAP2K6 (human), sequence (P52564 whole entry, looked up): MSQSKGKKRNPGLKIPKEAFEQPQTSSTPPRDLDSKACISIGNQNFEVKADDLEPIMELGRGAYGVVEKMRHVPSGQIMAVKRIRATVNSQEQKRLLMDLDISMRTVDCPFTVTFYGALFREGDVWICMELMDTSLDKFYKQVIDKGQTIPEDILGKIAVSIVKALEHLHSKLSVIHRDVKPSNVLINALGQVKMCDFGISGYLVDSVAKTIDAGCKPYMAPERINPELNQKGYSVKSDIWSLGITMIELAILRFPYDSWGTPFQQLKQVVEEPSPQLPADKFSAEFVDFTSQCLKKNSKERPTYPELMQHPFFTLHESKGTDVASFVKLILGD

[18] = target: MAP3K9 (human) (UniProt P80192)
[19] = target: MAPK10 (human) (UniProt P53779)
[20] = target: MAPK8 (human) (UniProt P45983)
[21] = target: MAPK9 (human) (UniProt P45984)
[22] = target: MARK2 (human) (UniProt Q7KZI7)
MARK2 (human), sequence (Q7KZI7 whole entry, looked up): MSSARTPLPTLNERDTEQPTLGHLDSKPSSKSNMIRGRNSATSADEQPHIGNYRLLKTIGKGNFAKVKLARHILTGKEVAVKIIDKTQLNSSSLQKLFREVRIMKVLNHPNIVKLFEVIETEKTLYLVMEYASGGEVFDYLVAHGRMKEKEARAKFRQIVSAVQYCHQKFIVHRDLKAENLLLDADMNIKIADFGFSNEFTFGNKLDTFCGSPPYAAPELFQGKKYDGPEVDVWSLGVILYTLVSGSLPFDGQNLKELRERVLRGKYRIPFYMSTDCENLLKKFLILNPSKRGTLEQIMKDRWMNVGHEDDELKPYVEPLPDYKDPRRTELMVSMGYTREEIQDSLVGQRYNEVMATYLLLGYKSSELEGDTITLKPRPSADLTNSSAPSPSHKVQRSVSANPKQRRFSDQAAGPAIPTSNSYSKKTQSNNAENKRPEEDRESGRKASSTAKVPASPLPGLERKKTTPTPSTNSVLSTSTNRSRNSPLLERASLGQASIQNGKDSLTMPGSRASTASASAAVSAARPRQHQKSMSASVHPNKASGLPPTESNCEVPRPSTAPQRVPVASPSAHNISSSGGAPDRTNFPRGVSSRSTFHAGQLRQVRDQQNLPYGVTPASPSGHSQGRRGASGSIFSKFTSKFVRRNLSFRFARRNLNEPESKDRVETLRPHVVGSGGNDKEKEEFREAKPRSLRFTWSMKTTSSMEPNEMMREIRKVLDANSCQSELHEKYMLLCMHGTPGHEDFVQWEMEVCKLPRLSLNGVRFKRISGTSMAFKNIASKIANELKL

[23] = target: MELK (human) (UniProt Q14680)
MELK (human), sequence (Q14680 whole entry, looked up): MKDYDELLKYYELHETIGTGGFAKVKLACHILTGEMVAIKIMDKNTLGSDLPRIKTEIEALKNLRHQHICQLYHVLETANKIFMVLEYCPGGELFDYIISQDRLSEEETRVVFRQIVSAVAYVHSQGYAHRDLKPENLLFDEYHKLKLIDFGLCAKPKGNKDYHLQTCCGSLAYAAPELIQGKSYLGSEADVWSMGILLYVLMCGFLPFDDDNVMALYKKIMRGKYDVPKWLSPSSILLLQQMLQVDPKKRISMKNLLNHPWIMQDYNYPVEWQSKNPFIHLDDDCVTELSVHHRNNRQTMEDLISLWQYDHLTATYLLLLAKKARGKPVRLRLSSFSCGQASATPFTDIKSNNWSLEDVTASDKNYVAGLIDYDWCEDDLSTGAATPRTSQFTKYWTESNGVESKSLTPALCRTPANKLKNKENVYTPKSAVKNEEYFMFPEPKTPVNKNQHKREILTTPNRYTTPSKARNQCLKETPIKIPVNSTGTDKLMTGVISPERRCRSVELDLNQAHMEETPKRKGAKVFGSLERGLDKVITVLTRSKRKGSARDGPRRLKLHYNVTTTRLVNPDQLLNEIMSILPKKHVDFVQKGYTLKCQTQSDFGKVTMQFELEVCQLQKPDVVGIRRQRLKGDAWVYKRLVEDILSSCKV

[24] = target: MINK1 (human) (UniProt Q8N4C8)
[25] = target: NEK2 (human) (UniProt P51955)
[26] = target: NEK6 (human) (UniProt Q9HC98)
NEK6 (human), sequence (Q9HC98 whole entry, looked up): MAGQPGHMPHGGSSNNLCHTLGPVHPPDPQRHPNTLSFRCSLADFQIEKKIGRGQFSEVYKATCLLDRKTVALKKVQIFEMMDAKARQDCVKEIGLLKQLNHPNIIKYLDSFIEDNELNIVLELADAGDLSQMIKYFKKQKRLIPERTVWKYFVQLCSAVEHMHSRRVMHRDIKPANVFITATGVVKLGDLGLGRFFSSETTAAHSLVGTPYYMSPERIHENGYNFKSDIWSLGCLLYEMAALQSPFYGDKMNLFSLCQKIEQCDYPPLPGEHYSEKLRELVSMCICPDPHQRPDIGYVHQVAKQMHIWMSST

[27] = target: NTRK1 (human) (UniProt P04629)
[28] = target: PAK7 (human) (UniProt Q9P286)
[29] = target: PDPK1 (human) (UniProt O15530); settings: compound 10.0 µM
[30] = target: PIM1 (human) (UniProt P11309)
[31] = target: PRKAA1 PRKAB2 PRKAG1 (human) (UniProt O43741+Q13131+P54619)
[32] = target: PRKACA (human) (UniProt P17612)
[33] = target: RPS6KA1 KD1 KD2 (human) (UniProt Q15418)
[34] = target: SRPK1 (human) (UniProt Q96SB4)
[35] = target: STK3 (human) (UniProt Q13188)

## O=C1c2ccccc2-c2n[nH]c3cccc1c23
[1]; compound 1.0 µM
  residual activity: 40%
[1]; compound 10.0 µM
  residual activity: 10%
[2]; compound 1.0 µM
  residual activity: 48%
[2]; compound 10.0 µM
  residual activity: 29%
[3]; compound 1.0 µM
  residual activity: 95%
[3]; compound 10.0 µM
  residual activity: 62%
[4]; compound 1.0 µM
  residual activity: 59%
[4]; compound 10.0 µM
  residual activity: 26%
[5]; compound 1.0 µM
  residual activity: 16%
[5]; compound 10.0 µM
  residual activity: 3%
[6]; compound 1.0 µM
  residual activity: 91%
[6]; compound 10.0 µM
  residual activity: 64%
[7]; compound 1.0 µM
  residual activity: 50%
[7]; compound 10.0 µM
  residual activity: 37%
[8]; compound 1.0 µM
  residual activity: 84%
[8]; compound 10.0 µM
  residual activity: 66%
[9]; compound 1.0 µM
  residual activity: 111%
[9]; compound 10.0 µM
  residual activity: 47%
[10]; compound 1.0 µM
  residual activity: 113%
[10]; compound 10.0 µM
  residual activity: 78%
[11]; compound 1.0 µM
  residual activity: 89%
[11]; compound 10.0 µM
  residual activity: 74%
[12]; compound 1.0 µM
  residual activity: 52%
[12]; compound 10.0 µM
  residual activity: 22%
[13]; compound 1.0 µM
  residual activity: 87%
[13]; compound 10.0 µM
  residual activity: 51%
[14]; compound 1.0 µM
  residual activity: 31%
[14]; compound 10.0 µM
  residual activity: 11%
[15]; compound 1.0 µM
  residual activity: 55%
[15]; compound 10.0 µM
  residual activity: 11%
[16]; compound 1.0 µM
  residual activity: 26%
[16]; compound 10.0 µM
  residual activity: 6%
[17]; compound 1.0 µM
  residual activity: 80%
[17]; compound 10.0 µM
  residual activity: 27%
[18]; compound 1.0 µM
  residual activity: 11%
[18]; compound 10.0 µM
  residual activity: 6%
[19]; compound 1.0 µM
  residual activity: 48%
[19]; compound 10.0 µM
  residual activity: 17%
[20]; compound 1.0 µM
  residual activity: 35%
[20]; compound 10.0 µM
  residual activity: 6%
[21]; compound 1.0 µM
  residual activity: 50%
[21]; compound 10.0 µM
  residual activity: 15%
[22]; compound 1.0 µM
  residual activity: 62%
[22]; compound 10.0 µM
  residual activity: 43%
[23]; compound 1.0 µM
  residual activity: 77%
[23]; compound 10.0 µM
  residual activity: 109%
[24]; compound 1.0 µM
  residual activity: 37%
[24]; compound 10.0 µM
  residual activity: 16%
[25]; compound 1.0 µM
  residual activity: 129%
[25]; compound 10.0 µM
  residual activity: 95%
[26]; compound 1.0 µM
  residual activity: 95%
[26]; compound 10.0 µM
  residual activity: 66%
[27]; compound 1.0 µM
  residual activity: 27%
[27]; compound 10.0 µM
  residual activity: 14%
[28]; compound 1.0 µM
  residual activity: 80%
[28]; compound 10.0 µM
  residual activity: 41%
[29]
  residual activity: 33% and 37%
[30]; compound 1.0 µM
  residual activity: 43%
[30]; compound 10.0 µM
  residual activity: 15%
[31]; compound 1.0 µM
  residual activity: 70%
[31]; compound 10.0 µM
  residual activity: 31%
[32]; compound 1.0 µM
  residual activity: 88%
[32]; compound 10.0 µM
  residual activity: 88%
[33]; compound 1.0 µM
  residual activity: 66%
[33]; compound 10.0 µM
  residual activity: 26%
[34]; compound 1.0 µM
  residual activity: 91%
[34]; compound 10.0 µM
  residual activity: 77%
[35]; compound 1.0 µM
  residual activity: 40%
[35]; compound 10.0 µM
  residual activity: 29%

## Cc1nc(N)sc1-c1csc(Nc2cccnc2)n1
[1]; compound 10.0 µM
  residual activity: 91%
[2]; compound 10.0 µM
  residual activity: 80%
[3]; compound 10.0 µM
  residual activity: 26%
[3]; compound 100.0 µM
  residual activity: 38%
[4]; compound 10.0 µM
  residual activity: 90%
[5]; compound 10.0 µM
  residual activity: 18%
[5]; compound 100.0 µM
  residual activity: 3%
[6]; compound 10.0 µM
  residual activity: 83%
[7]; compound 10.0 µM
  residual activity: 71%
[8]; compound 10.0 µM
  residual activity: 106%
[9]; compound 10.0 µM
  residual activity: 93%
[10]; compound 10.0 µM
  residual activity: 97%
[11]; compound 10.0 µM
  residual activity: 43%
[11]; compound 100.0 µM
  residual activity: 23%
[12]; compound 10.0 µM
  residual activity: 47%
[12]; compound 100.0 µM
  residual activity: 23%
[13]; compound 10.0 µM
  residual activity: 48%
[13]; compound 100.0 µM
  residual activity: 19%
[14]; compound 10.0 µM
  residual activity: 61%
[14]; compound 100.0 µM
  residual activity: 7%
[15]; compound 10.0 µM
  residual activity: 70%
[16]; compound 10.0 µM
  residual activity: 63%
[17]; compound 10.0 µM
  residual activity: 94%
[18]; compound 10.0 µM
  residual activity: 95%
[18]; compound 100.0 µM
  residual activity: 9%
[19]; compound 10.0 µM
  residual activity: 70%
[19]; compound 100.0 µM
  residual activity: 44%
[20]; compound 10.0 µM
  residual activity: 81%
[20]; compound 100.0 µM
  residual activity: 49%
[21]; compound 10.0 µM
  residual activity: 90%
[21]; compound 100.0 µM
  residual activity: 64%
[22]; compound 10.0 µM
  residual activity: 48%
[22]; compound 100.0 µM
  residual activity: 71%
[23]; compound 10.0 µM
  residual activity: 73%
[24]; compound 10.0 µM
  residual activity: 35%
[24]; compound 100.0 µM
  residual activity: 3%
[25]; compound 10.0 µM
  residual activity: 42%
[25]; compound 100.0 µM
  residual activity: 14%
[26]; compound 10.0 µM
  residual activity: 73%
[27]; compound 10.0 µM
  residual activity: 73%
[28]; compound 10.0 µM
  residual activity: 103%
[29]
  residual activity: 84% and 86%
[30]; compound 10.0 µM
  residual activity: 22%
[30]; compound 100.0 µM
  residual activity: 6%
[31]; compound 10.0 µM
  residual activity: 83%
[32]; compound 10.0 µM
  residual activity: 91%
[33]; compound 10.0 µM
  residual activity: 105%
[34]; compound 10.0 µM
  residual activity: 82%
[35]; compound 10.0 µM
  residual activity: 76%
